Reference: patent US9067935B2 (Janssen Pharmaceutica, NV, priority 2010, dated 2015)
Like-named read-outs stand apart in the source and are kept apart here.

Target: canine TRPM8 (Canis lupus familiaris, UniProt Q1A7N1)
Experiment: In Vitro Canine TRPM8 Functional Assay (intracellular Ca2+ fluorescence, icilin challenge)
Assay type: cell-based
Conditions: for IC50: icilin at ~80% maximal response
Method: The functional activity of compounds of the formula (I) was determined by measuring changes in intracellular calcium concentration using a Ca^2+-sensitive fluorescent dye. The changes in fluorescent signal were monitored by a fluorescence plate reader, either a FLIPR™ (Molecular Devices) or FDSS (Hamamatsu).
At 24 hrs prior to assay, HEK293 cells stably expressing canine TRPM8 were seeded in culture medium in black wall, clear-base poly-D-lysine coated 384-well plates (BD Biosciences, NJ, USA) and grown overnight in 5% CO2 at 37° C. On assay day, growth media was removed and cells were loaded with Calcium 3 Dye (Molecular Devices) for 35 min at 37° C., under 5% CO2 and then for 25 min at room temperature and atmosphere. Subsequently, cells were tested for agonist-induced increases in intracellular Ca^2+ levels using FLIPR™ or FDSS. Cells were challenged with a compound of the Formula (I) (at varying concentrations) and intracellular Ca^2+ was measured for 5 min prior to the addition of icilin to all wells to achieve a final concentration that produces approximately an 80% maximal response. EC50 or IC50 values for compounds of the present invention were determined from eight-point dose-response studies. Curves were generated using the average of quadruplicate wells for each data point.

[1] = HEK293 cells stably expressing canine TRPM8
[2] = HEK293, @ 0.2 μM, HEK293 cells stably expressing canine TRPM8, read-out: % Inh (%) @ 0.2 μM
[3] = HEK293, read-out: % Inh (%) @ 0.2 μM

Chain of canine TRPM8 (Q1A7N1 1-1104): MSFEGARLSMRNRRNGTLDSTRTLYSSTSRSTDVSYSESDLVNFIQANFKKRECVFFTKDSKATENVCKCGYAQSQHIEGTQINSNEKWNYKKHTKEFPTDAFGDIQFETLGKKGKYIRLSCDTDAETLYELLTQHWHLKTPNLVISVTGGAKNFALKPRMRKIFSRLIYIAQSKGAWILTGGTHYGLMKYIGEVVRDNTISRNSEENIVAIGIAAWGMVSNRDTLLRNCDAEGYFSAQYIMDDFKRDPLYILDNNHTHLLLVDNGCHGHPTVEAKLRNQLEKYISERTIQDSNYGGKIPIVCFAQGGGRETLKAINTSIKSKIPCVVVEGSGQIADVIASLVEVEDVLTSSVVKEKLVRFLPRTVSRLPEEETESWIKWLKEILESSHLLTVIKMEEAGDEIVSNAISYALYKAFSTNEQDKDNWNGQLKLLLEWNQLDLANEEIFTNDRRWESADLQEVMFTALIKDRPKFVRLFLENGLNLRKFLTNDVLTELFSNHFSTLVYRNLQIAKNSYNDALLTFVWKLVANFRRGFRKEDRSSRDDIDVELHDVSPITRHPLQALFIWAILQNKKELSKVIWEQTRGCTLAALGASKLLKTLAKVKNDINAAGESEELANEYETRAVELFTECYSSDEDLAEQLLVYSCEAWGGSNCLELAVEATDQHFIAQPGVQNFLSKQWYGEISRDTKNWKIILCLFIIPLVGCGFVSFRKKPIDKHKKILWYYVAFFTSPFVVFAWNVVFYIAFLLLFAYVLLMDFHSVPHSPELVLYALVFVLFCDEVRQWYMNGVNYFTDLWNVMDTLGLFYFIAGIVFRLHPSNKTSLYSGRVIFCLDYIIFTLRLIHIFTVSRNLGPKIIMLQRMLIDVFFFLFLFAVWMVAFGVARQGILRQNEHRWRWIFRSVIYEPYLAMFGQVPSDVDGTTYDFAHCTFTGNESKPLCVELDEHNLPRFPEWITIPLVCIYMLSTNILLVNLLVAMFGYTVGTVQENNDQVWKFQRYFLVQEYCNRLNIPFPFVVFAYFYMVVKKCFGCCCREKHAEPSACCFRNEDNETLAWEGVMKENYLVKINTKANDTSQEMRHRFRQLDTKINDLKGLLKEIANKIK

SMILES | EC50 [1] [nM] | IC50 [1] [nM] | inhibition at 0.2 µM [2] [%] | % Inh (%) @ 0.2 μM [1] [%] | inhibition at 0.2 µM [3] [%]
Cc1c(N(Cc2ccc(OC(F)(F)F)cc2)S(=O)(=O)CCN(CC(C)C)CC(C)C)nc2cc(C(F)(F)F)ccn12 [Compound 106, N-(4-Trifluoromethoxybenzyl)-N-(7-trifluoromethyl-3-methylimidazo[1,2-a]pyridin-2-yl)-2-(N,N-diisobutylamino)ethylsulfonamide] | 93 | – | – | – | –
Cc1ccc2nc(N(Cc3ccc(C(F)(F)F)c(F)c3)S(=O)(=O)c3ccccc3)c(C)n2c1 [Compound 41] | – | 25.3 | 100 | – | –
Cc1c(N(Cc2ccc(OC(F)(F)F)cc2)S(=O)(=O)c2ccc(C(=O)O)cc2)nc2c(F)cccn12 [Compound 122] | – | 4.03 | – | 99 | –
O=S(=O)(c1ccc(N2CCOCC2)nc1)N(Cc1ccc(OC(F)(F)F)cc1)c1nc2ccccn2c1Cl [Compound 92] | – | 25 | 99 | – | –
Cc1ccc2nc(N(Cc3ccc(OC(F)(F)F)cc3)S(=O)(=O)c3ccccc3)c(C)n2c1 [Compound 39] | – | 28.9 | 99 | – | –
COC(=O)c1ccc(S(=O)(=O)N(Cc2ccc(F)c(C(F)(F)F)c2)c2nc3ccc(Cl)cn3c2C)cc1 [Compound 112] | – | 82.1 | 83 | – | –
O=S(=O)(c1ccc(N2CCOCC2)nc1)N(Cc1ccc(C(F)(F)F)c(F)c1)c1nc2ccccn2c1Br [Compound 85] | – | 31.2 | 100 | – | –
Cc1cccn2c(C)c(N(Cc3ccc(OC(F)(F)F)cc3)S(=O)(=O)c3ccc(C(=O)[O-])cc3)nc12.[Na+] [Compound 117] | – | 13.5 | – | 101 | –
O=S(=O)(c1ccc(N2CCOCC2)nc1)N(Cc1ccc(C(F)(F)F)c(F)c1)c1nc2ccccn2c1Cl [Compound 91] | – | 41.6 | 99 | – | –
O=S(=O)(c1ccccc1)N(Cc1ccc(OC(F)(F)F)cc1)c1cn2ccccc2n1 [Compound 12] | – | 48.7 | – | – | –
Cc1c(N(Cc2ccc(OC(F)(F)F)cc2)S(=O)(=O)c2ccc(-n3cccn3)cc2)nc2ccc(Cl)cn12 [Compound 104] | – | 51.6 | 93 | – | –
Cc1c(N(Cc2ccc(OC(F)(F)F)cc2)S(=O)(=O)c2ccc(C(=O)O)cc2)nc2ccc(Cl)cn12 [Compound 113, Sodium 4-(N-(6-Chloro-3-methylimidazo[1,2-a]pyridin-2-yl)-N-(4-trifluoromethoxybenzyl)sulfamoyl)benzoate] | – | 14.6 | – | – | 102
O=S(=O)(c1ccccc1)N(Cc1ccc(C(F)(F)F)c(F)c1)c1nc2ccc(C(F)(F)F)cn2c1Cl [Compound 60, N-(3-Chloro-6-trifluoromethylimidazo[1,2-a]pyridin-2-yl)-N-(3-fluoro-4-trifluoromethylbenzyl)benzenesulfonamide] | – | – | 55 | – | –
CCc1c(N(Cc2ccc(F)c(C(F)(F)F)c2)S(=O)(=O)c2ccccc2)nc2c(C(F)(F)F)cccn12 [Compound 55, N-(3-Ethyl-8-trifluoromethylimidazo[1,2-a]pyridin-2-yl)-N-(4-fluoro-3-trifluoromethylbenzyl)benzenesulfonamide] | – | 33.4 | 94 | – | –
Cc1cccn2c(C)c(N(Cc3ccc(C(F)(F)F)cc3)S(=O)(=O)c3ccccc3)nc12 [Compound 33] | – | 26.7 | 99 | – | –
O=S(=O)(c1ccccc1)N(Cc1ccc(F)cc1)c1nc2ccc(Cl)cn2c1Cl [Compound 16] | – | 72 | – | – | –
Cc1ccn2c(C)c(N(Cc3ccc(F)c(C(F)(F)F)c3)S(=O)(=O)c3ccc(Br)cc3)nc2c1 [Compound 42] | – | 25.4 | 99 | – | –
O=S(=O)(c1ccccc1)N(Cc1ccc(C(F)(F)F)c(F)c1)c1nc2ccc(Cl)cn2c1Cl [Compound 29] | – | 32.2 | 90 | – | –
CCc1c(N(Cc2ccc(OC(F)(F)F)cc2)S(=O)(=O)c2ccccc2)nc2c(C(F)(F)F)cccn12 [Compound 57] | – | 96.6 | 82 | – | –
Cc1c(N(Cc2ccc(F)c(C(F)(F)F)c2)S(=O)(=O)c2ccccc2)nc2ccc(Cl)cn12 [Compound 37] | – | 29.4 | 100 | – | –
CCc1c(N(Cc2ccc(C(F)(F)F)c(F)c2)S(=O)(=O)c2ccc(-n3cccn3)cc2)nc2ccc(Cl)cn12 [Compound 88] | – | 41.4 | 100 | – | –
O=S(=O)(c1ccccc1)N(Cc1ccc(F)c(C(F)(F)F)c1)c1nc2ccc(C(F)(F)F)cn2c1Cl [Compound 62] | – | – | 56 | – | –
COC(=O)c1ccc(S(=O)(=O)N(Cc2ccc(F)c(C(F)(F)F)c2)c2nc3ccc(F)cn3c2C)cc1 [Compound 119, Methyl 4-(N-(6-fluoro-3-methylimidazo[1,2-a]pyridin-2-yl)-N-(4-fluoro-3-(trifluoromethyl)benzyl)sulfamoyl)benzoate] | – | 23.9 | 100 | – | –
CCc1c(N(Cc2ccc(OC(F)(F)F)cc2)S(=O)(=O)c2ccc(-n3cccn3)cc2)nc2ccc(Cl)cn12 [Compound 89] | – | 25 | 99 | – | –
O=S(=O)(c1ccccc1)N(Cc1ccc(OC(F)(F)F)cc1)c1nc2ccc(Cl)cn2c1Cl [Compound 7] | – | 29.8 | – | – | –
O=S(=O)(c1ccc(N2CCOCC2)nc1)N(Cc1ccc(F)c(C(F)(F)F)c1)c1nc2ccccn2c1Cl [Compound 90, N-(3-Chloroimidazo[1,2-a]pyridin-2-yl)-N-(4-fluoro-3-trifluoromethylbenzyl)-6-morpholin-4-yl-pyridine-3-sulfonamide] | – | 26.9 | 99 | – | –
Cc1cccn2c(C)c(N(Cc3ccc(F)c(C(F)(F)F)c3)S(C)(=O)=O)nc12 [Compound 35] | – | 44.9 | 74 | – | –
O=S(=O)(c1ccc(N2CCOCC2)nc1)N(Cc1ccccc1)c1nc2ccccn2c1Br [Compound 83] | – | 74.6 | 87 | – | –
Cc1c(N(Cc2ccc(F)c(C(F)(F)F)c2)S(=O)(=O)c2ccc(C(=O)O)cc2)nc2ccc(F)cn12 [Compound 121, Sodium 4-(N-(6-fluoro-3-methylimidazo[1,2-a]pyridin-2-yl)-N-(4-fluoro-3-(trifluoromethyl)benzyl)sulfamoyl)benzoate] | – | 32.8 | – | – | 101

Continued by falling IC50 [1], values first:

EC50 [1] [nM] | IC50 [1] [nM] | inhibition at 0.2 µM [2] [%] | SMILES | % Inh (%) @ 0.2 μM [1] [%] | inhibition at 0.2 µM [3] [%]
– | 22 | 99 | CCc1c(N(CCCCC(F)(F)F)S(=O)(=O)c2ccccc2)nc2c(C(F)(F)F)cccn12 [Compound 64] | – | –
– | 21.5 | 101 | O=S(=O)(c1ccccc1)N(Cc1ccc(OC(F)(F)F)cc1)c1nc2ccccn2c1C1CC1 [Compound 71] | – | –
– | 20.7 | – | Cc1c(N(Cc2ccc(OC(F)(F)F)cc2)S(=O)(=O)c2ccccc2)nc2cc(Cl)ccn12 [Compound 14] | – | –
– | 13.6 | 99 | Cc1c(N(Cc2ccc(F)c(Cl)c2)S(=O)(=O)c2ccccc2)nc2ccc(Cl)cn12 [Compound 46] | – | –
– | 13.4 | – | O=S(=O)(c1ccccc1)N(Cc1ccc(C(F)(F)F)c(F)c1)c1cn2ccccc2n1 [Compound 24] | – | –
– | 12.1 | 99 | CCc1c(N(Cc2ccc(C(F)(F)F)c(F)c2)S(=O)(=O)c2ccccc2)nc2cccc(C)n12 [Compound 80] | – | –
– | 11.3 | 101 | O=S(=O)(c1ccccc1)N(Cc1ccc(C(F)(F)F)cc1)c1nc2ccccn2c1C1CC1 [Compound 72] | – | –
– | 11 | 99 | Cc1cccc2nc(N(Cc3ccc(F)c(C(F)(F)F)c3)S(=O)(=O)c3ccccc3)c(C)n12 [Compound 48] | – | –
– | 10.3 | 101 | Cc1cccn2c(C)c(N(Cc3ccc(F)c(C(F)(F)F)c3)S(=O)(=O)c3ccccc3)nc12 [Compound 31] | – | –
– | 10.1 | 100 | Cc1ccn2c(C)c(N(Cc3ccc(OC(F)(F)F)cc3)S(=O)(=O)c3ccccc3)nc2c1 [Compound 26] | – | –
– | 10.1 | – | Cc1c(N(Cc2ccc(F)c(C(F)(F)F)c2)S(=O)(=O)c2ccccc2)nc2ccc(F)cn12 [Compound 20] | – | –
– | 10 | 100 | Cc1cccn2c(C)c(N(Cc3ccc(OC(F)(F)F)cc3)S(=O)(=O)c3ccccc3)nc12 [Compound 30] | – | –
– | 8.48 | 99 | O=S(=O)(c1ccc(-n2cccn2)cc1)N(Cc1ccc(OC(F)(F)F)cc1)c1nc2ccccn2c1Cl [Compound 97] | – | –
– | 8.21 | 101 | O=S(=O)(c1ccccc1)N(Cc1ccc(C(F)(F)F)c(F)c1)c1nc2ccccn2c1C1CC1 [Compound 70] | – | –
– | 6.56 | 101 | CC(C)c1c(N(Cc2ccc(C(F)(F)F)c(F)c2)S(=O)(=O)c2ccccc2)nc2ccccn12 [Compound 51] | – | –
– | 6.11 | 100 | Cc1ccn2c(C)c(N(Cc3ccc(C(F)(F)F)c(F)c3)S(=O)(=O)c3ccccc3)nc2c1 [Compound 27] | – | –
– | 5.29 | 102 | COC(=O)c1ccc(S(=O)(=O)N(Cc2ccc(OC(F)(F)F)cc2)c2nc3ccccn3c2Cl)cc1 [Compound 116] | – | –
– | 3.49 | – | O=S(=O)(c1ccccc1)N(Cc1ccc(C(F)(F)F)c(F)c1)c1nc2ccccn2c1Br [Compound 25] | – | –
– | 2.27 | 100 | O=S(=O)(c1ccc(-n2cccn2)cc1)N(Cc1ccc(OC(F)(F)F)cc1)c1nc2ccccn2c1Br [Compound 77] | – | –
